In PMC4459817, “Vasculotide reduces endothelial permeability and tumor cell extravasation in the absence of binding to or agonistic activation of Tie2” (EMBO Molecular Medicine, 2015):

Key:
[1] = tested on: pancreatic neuroendocrine tumors; settings: ref Paez-Ribes et al, 2009; cited from earlier work
Description: There are at least two plausible explanations for this differential impact of SU on hematogenous metastasis (to lung/liver) vs. lymphogenous metastasis (to LNs). Paez-Ribes et al ...

[2] = tested on: CMPTX-labeled tumor cells across HMVEC-DBl; assay: modified Boyden chamber, trans-endothelial tumor cell migration, HMVEC-DBl; type: cell-based, human; settings: Fig1E
Procedure: ECs were first treated with Vasculotide (VT), PBS (vehicle/negative control), Ang1 (positive control), PEG-Cys (polyethylene glycol backbone), T7c (non-PEGylated CHHHRHSF peptides), or VT in the presence of 100-fold molar excess of T7c. The concentrations used, 10–20 ng/mL VT and 200–400 ng/mL Ang1, are estimated molar equivalents (0.71–1.43 nM). Thirty minutes later, ECs were stimulated with thrombin, 0.1% BSA (vehicle/negative control), or EDTA (positive control). Another 30mins later, the amount of FITC-dextran diffusion into the lower chambers (A, D) provides a measure of endothelial permeability. CMTPX-labeled tumor cells (TCs) were then dispensed into inserts, and the amount of TC fluorescence emitting from the underside of insert membranes after 20 h (B–C) or 28 h (E) reflects the efficiency of trans-endothelial TC migration. […] Three experiments (twice with HMVEC-LBl and once with HMVEC-DBl) were run with n = 3–5 inserts (independent biological replicates) per group and analyzed by two-sampled unpaired t-tests. […]
Endothelial cells (ECs) were grown on cell culture inserts with uncoated 8-μm-pore PET filter membranes to 100% confluency. […] After 30 min of thrombin stimulation or 4–6 h of TC-CM stimulation, FITC fluorescence (ex/em = 490/520 nm) was measured from a 50 μl sample of the lower chamber media. […]

| Molecule | metastasis to the liver but not the lymph nodes [1] | thrombin-stimulated migration of CMTPX-labeled TCs ([2]; 28 h) | TC migration effect of VT in presence of 100-fold molar excess of T7c [2] |
| --- | --- | --- | --- |
| CCN(CC)CCNC(=O)c1c(C)[nH]c(/C=C2\C(=O)Nc3ccc(F)cc32)c1C [sunitinib, reference compound] | increased metastasis to the liver but not the lymph nodes |  |  |
| CHHHRHSF [Vasculotide, 4-armed maleimide-functionalized polyethylene glycol (PEG) backbone to link together four cysteine-capped T7 peptides, that is, CHHHRHSF] |  | trends of reducing thrombin-stimulated migration | dampened the effects of VT |
